Experimental data: publication PMC10946275, “New imidazole-2-thiones linked to acenaphythylenone as dual DNA intercalators and topoisomerase II inhibitors: structural optimization, docking, and apoptosis studies” (Journal of Enzyme Inhibition and Medicinal Chemistry, 2024)
Where “and” joins values, the source holds several entries; their conditions need not be identical. Equal entries are not always repeated.

How the values were obtained:
calf thymus DNA (ctDNA) = test: Terbium (Tb3+) luminescent biosensor detection of induced DNA damage; assay type: biochemical; conditions: for Tb luminescence enhancement (induced DNA damage): ctDNA incubated with compound 24 h, emission 545 nm, excitation 270 nm, compared with ctDNA-Tb mixture; for Concentration at which Tb luminescence stops increasing (maximum DNA damage) / LOD (limit of detection; minimum concentration inducing detectable damage in ctDNA) / LOQ (limit of quantitation): ctDNA, 24 h incubation
Description: Luminescence studies were accomplished in order to examine the possible DNA interaction with the studied compounds. Many luminescent biosensors are reported in literature for studying the possibility of DNA interaction with small molecules. […] Figure 5 presents a schematic diagram for the fluorometric detection of the induced DNA damage using Tb biosensor. Tb^3+ ion in the Tb luminescent probe is a trivalent lanthanide cation having low intrinsic luminescence in aqueous solutions[45]^,[46]. When Tb biosensor is added to a solution of DNA, it interacts differently with double-stranded DNA (dsDNA) and single-stranded DNA (ssDNA). With dsDNA, Tb^3+ ions are electrostatically attracted to the negatively charged phosphate backbone of the DNA. […] Therefore, the assessed compound damages dsDNA, ssDNA sites would be formed opposite to the site of damage and Tb^3+ would directly coordinate to the unpaired nucleobases in this single-stranded site.
For investigating the DNA interaction potential of the fourteen studied compounds, calf thymus DNA (ctDNA) was incubated with each compound for 24 h and then Tb was added to each mixture. Doxorubicin (DOX), a commonly used reference for DNA damaging agent was used and treated the same condition as the studied compounds. Tb luminescent intensity was measured at λmax = 545 nm after excitation at λmax = 270 nm.
Several concentrations within the range of 0.1 pM–200.0 μM of each of the studied compounds were incubated with ctDNA for 24 h. After which, Tb solution was added to aliquots of such mixtures and the luminescence intensity was recorded. Figure 7 presents Tb luminescence intensity as a function of the compound concentration for various compound/ctDNA/Tb mixtures. At minimum concentration of the studied compounds, minimum Tb luminescence was recorded. This reflects that the DNA molecule is undamaged, intact and acquiring a double helical structure. In this conformation, Tb ions are electrostatically attracted to the negatively charged DNA-phosphate backbone showing no increase in its luminescence. For solutions with higher concentrations of compounds 5b, 5h, and 5j (Figure 7a,c,and d). Tb fluorescence increased proportionally with the concentration until a concentration of 100 and 60 μM for compounds 5b, 5h, and 5j, respectively, where no further increase in the fluorescence occurs. This reflects that more DNA damage is induced with increasing concentrations of the three compounds. At concentrations higher than 100 and 60 μM for compounds 5b, 5h, and 5j, respectively, Tb luminescence remains constant at high fluorescence levels. […] Table 1 illustrates the analytical parameters elucidated as shown in Figure 7 for the quantification of the induced DNA damage by the studied compounds. The linearity parameters were calculated from the calibration curve in Figure 7-inset in order to obtain the minimum concentration of the studied compounds that would induce DNA damage.
Fluorescence measurements: Fluorescence spectra were measured between 290 and 800 nm with excitation at 270 nm of 100 µL solutions in a 1 cm path length Suprasil quartz fluorescence cuvette.
The PerkinElmer LS 55 fluorescence spectrophotometer was used to measure the fluorescence. After 24 h of incubation in buffer solution (40 mM Tris, 10 mM NaCl, pH 7.5), aliquots of each DNA-Compound mixture were combined with TbCl3 to confirm DNA damage. The final concentrations were […] ctDNA, 3 mM TbCl3, and 50 µM of each compound in buffer solution (40 mM Tris, 10 mM NaCl, pH 7.5). Calf thymus DNA (ctDNA) was combined with various quantities of each substance, ranging from 0.1 pM to 200 µM, for the experiment. The ultimate concentrations of […] ctDNA and 3 mM were achieved by adding Tb3 + solution to the ctDNA/compound combinations in buffer solution (40 mM Tris, 10 mM NaCl, pH 7.5) after 24 h of incubation.[44]
All chemicals, solvents, media and kits were purchased from commercial suppliers. […]

[1] = tested on: hepatocellular carcinoma (HepG2); test: MTT cytotoxicity assay, HepG2; assay type: cell-based; conditions: Homo sapiens, 24 h treatment, read-out: IC50 against HepG2
Procedure: (§1) (Supplementary file). Compounds 5b and 5h were screened for their effects on the normal breast cell line MCF‐10a. Cells at a density of 1 × 104 were seeded in a 96‐well plate at 37 °C for 48 h under 5% CO2. After incubation, the cells were treated with different concentrations of the prepared molecules and incubated for 24 h. MTT dye was added after 24 h of drug treatment and incubated for 4 h at 37 °C. Also, 100 μl of dimethyl sulphoxide was added to each well to dissolve the purple formazan formed. The colour intensity of the formazan product, which represents the growth condition of the cells, was quantified using an enzyme‐linked immunosorbent assay (ELISA) plate reader at 570 nm. The experiments were carried out with at least three replicates and they were repeated at least three times.
(§2) All chemicals, solvents, media and kits were purchased from commercial suppliers.
(§3) In vitro anticancer screening […]
(§4) against three cancer cell lines namely: hepatocellular carcinoma (HepG2), human breast adenocarcinoma (MCF-7) and human colon cancer (HCT -116) utilizing MTT assay2. Compounds […]
(§5) 5b and 5h were screened for their effects on the normal breast cell line MCF‐10a. Cells at a density of 1 × 104 were seeded in a 96‐well plate at 37°C for 48 hr under 5% CO2. After incubation, the cells were treated with different concentrations of the prepared molecules and incubated for 24 hr.
(§6) MTT dye was added after 24 h of drug treatment and incubated for 4 h at 37°C. Also, 100 μl of dimethyl sulphoxide was added to each well to dissolve the purple formazan formed. The color intensity of the formazan product, which represents the growth condition of the cells, was quantified using an enzyme‐linked immunosorbent assay (ELISA) plate reader at 570 nm. The experiments were carried out with at least three replicates and they were repeated at least three […]
(§7) *: Statistically significant at p ≤ 0.05
(§8) Means with any Common letter (a-e) are not significant (OR Means with totally Different letters (a-e) are significant)

MCF-7 cells [2] = test: Annexin V-FITC/PI apoptosis induction analysis (flow cytometry); assay type: cell-based, human; conditions: MCF-7, compound at its IC50, 24 h
[3] = tested on: normal breast cell line (MCF-10a); test: MTT cytotoxicity assay, normal breast cell line MCF-10a; assay type: cell-based; conditions: Homo sapiens, 24 h treatment, read-out: IC50 against MCF-10a (normal cell)
Procedure: as §1, §5, §6, §7
Means with any Common letter (a-e) are not significant (OR Means with totally Different letters (a-e) are significant) Annexin V-FITC/PI Apoptosis Induction Analysis 3
Apoptosis detection in MCf-7 cells was assessed using BioVision® annexin‐V‐FITC apoptosis detection kit according to the manufacturer's instructions and quantified by flow cytometry at 488

[4] = tested on: human breast adenocarcinoma (MCF-7); test: MTT cytotoxicity assay, MCF-7; assay type: cell-based; conditions: for IC50: Homo sapiens, MCF7, MTT, 24 h treatment, read-out: IC50 against MCF-7; for folds more active than doxorubicin: MCF-7; for Selectivity Index (SI): against MCF-7, relative to normal MCF-10a
Procedure: as §1, §2, §3, §4, §5, §6, §7, §8

[5] = tested on: human colon cancer (HCT-116); test: MTT cytotoxicity assay, HCT-116; assay type: cell-based; conditions: 24 h treatment, read-out: IC50 against HCT-116
Procedure: as §2, §3, §4, §5, §6, §7, §8

MCF-7 cells [6] = test: Cell cycle analysis (DNA flow cytometry, PI); conditions: for Phase of cell cycle arrest: MCF-7, compound at its IC50; for Cell cycle arrest (%) G0-G1 / Cell cycle arrest (%) G2/M / Cell cycle arrest (%) S: MCF-7, compound at its IC50, 24 h
Procedure: Cell cycle analysis: A FACS Calibur flow cytometer was used to measure the amount of DNA in the cell cycle analysis at 488 nm in accordance with the manufacturer’s recommendations. […] Cells were treated, rinsed twice, and then re-suspended in ice-cold PBS (phosphate buffer saline). After washing, 0.7 ml of 100% ethanol was added, and the mixture was then allowed to sit at 20 °C for 20 min. After washing, 500 μl of RNase was added, and then the mixture was incubated for 30 min. After that, PI was added, and the mixture was incubated without light for 30 min[22]^,[51].
3 Replica for each group Data was expressed using Mean ± SEM.
F: F for One way ANOVA test, Pairwise comparison bet. each 2 groups was done using Post Hoc Test (Tukey)
p: p value for comparing between the studied groups
p0: p value for comparing between Control and each other group
p1: p value for comparing between 5h and 5b
p2: p value for comparing between 5h and Dox
p3: p value for comparing between 5b and Dox
DNA content in the cell cycle analysis was quantified with the help ofa FACS Calibur flow
cytometer at 488 nm according to the manufacturer's instructions. Briefly, 2 × 10^5 cells/well were
cells were washed two times and resuspended in ice-cold phosphate buffer saline PBS. After
washing, 0.7 ml absolute ethanol was then added, followed by incubation at −20°C for 20 min.
After washing, 500 μl RNase was added, followed by incubation for 30 min. PI was then added,
followed by incubation for 30 min (light was avoided).

[7] = target: T1, human DNA topoisomerase II-β (TOPII-β) (Homo sapiens, UniProt Q02880); test: In vitro topoisomerase II inhibitory assay (ELISA kit); assay type: biochemical; conditions: ELISA kit MBS#942146; read-out: IC50 against topo II enzyme
T1 construct: own knowledge) MBS#942146
Description: Doxorubicin was used as a positive control. […] (Supplementary file).
SEM: Standard error of mean
as §7
Means with any Common letter (a-d) are not significant (OR Means with totally Different letters (a-d) are significant)
Doxorubicin was used as a positive control.

T1 sequence (Q02880 whole entry): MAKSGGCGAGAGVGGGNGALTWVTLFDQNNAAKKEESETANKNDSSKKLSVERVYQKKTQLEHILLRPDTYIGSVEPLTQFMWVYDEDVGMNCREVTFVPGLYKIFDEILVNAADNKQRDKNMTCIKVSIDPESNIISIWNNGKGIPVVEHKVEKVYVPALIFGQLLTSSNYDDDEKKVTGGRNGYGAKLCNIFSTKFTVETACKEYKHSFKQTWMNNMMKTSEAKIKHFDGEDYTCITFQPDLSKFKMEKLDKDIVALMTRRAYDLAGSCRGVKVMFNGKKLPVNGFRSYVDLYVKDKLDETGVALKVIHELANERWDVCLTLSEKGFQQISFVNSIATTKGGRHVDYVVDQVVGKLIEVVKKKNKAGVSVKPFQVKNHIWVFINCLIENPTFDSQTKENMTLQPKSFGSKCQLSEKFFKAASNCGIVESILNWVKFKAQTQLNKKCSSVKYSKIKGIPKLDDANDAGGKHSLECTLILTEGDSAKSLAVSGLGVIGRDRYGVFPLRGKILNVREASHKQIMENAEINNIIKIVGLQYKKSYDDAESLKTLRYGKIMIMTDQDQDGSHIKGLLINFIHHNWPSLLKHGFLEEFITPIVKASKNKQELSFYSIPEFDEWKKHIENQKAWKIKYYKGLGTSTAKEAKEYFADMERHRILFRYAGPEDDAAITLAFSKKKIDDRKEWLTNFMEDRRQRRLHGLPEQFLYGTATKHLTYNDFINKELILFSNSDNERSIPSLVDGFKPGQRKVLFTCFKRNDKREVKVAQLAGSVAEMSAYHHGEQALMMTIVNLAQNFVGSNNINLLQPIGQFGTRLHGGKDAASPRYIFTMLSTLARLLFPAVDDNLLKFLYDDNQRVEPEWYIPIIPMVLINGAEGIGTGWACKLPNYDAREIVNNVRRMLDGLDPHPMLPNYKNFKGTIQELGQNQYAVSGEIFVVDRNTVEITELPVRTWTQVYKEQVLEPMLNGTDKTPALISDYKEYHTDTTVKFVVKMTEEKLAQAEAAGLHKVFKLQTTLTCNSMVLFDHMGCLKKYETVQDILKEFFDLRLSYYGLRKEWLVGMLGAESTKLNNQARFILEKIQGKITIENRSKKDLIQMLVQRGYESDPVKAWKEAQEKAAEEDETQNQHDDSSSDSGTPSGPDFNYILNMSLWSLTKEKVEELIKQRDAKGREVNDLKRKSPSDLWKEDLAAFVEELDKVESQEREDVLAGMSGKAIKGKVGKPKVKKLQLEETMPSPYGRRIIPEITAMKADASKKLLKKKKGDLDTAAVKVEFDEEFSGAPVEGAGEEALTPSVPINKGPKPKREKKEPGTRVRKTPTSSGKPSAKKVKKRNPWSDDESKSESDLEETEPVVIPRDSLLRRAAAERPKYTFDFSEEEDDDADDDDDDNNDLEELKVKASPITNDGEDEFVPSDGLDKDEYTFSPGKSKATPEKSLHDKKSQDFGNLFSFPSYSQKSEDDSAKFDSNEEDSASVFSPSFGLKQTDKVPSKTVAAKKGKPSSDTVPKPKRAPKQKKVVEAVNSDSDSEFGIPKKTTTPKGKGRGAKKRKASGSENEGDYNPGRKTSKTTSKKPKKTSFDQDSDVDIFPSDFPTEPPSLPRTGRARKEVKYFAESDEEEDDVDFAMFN

Row | SMILES | Tb luminescence enhancement (induced DNA damage) (calf thymus DNA (ctDNA)) | Concentration at which Tb luminescence stops increasing (maximum DNA damage) (calf thymus DNA (ctDNA)) | LOD (limit of detection; minimum concentration inducing detectable damage in ctDNA) (calf thymus DNA (ctDNA)) | LOQ (limit of quantitation) (calf thymus DNA (ctDNA)) | IC50 [1] | Apoptosis results: Early apoptosis (MCF-7 cells [2]) | Apoptosis results: Late apoptosis (MCF-7 cells [2]) | Apoptosis results: Necrosis (MCF-7 cells [2]) | Apoptosis results: Total (MCF-7 cells [2]) | IC50 [3] | IC50 [4] | folds more active than doxorubicin [4] | Selectivity Index (SI) [4] | melting point | IC50 [5] | Phase of cell cycle arrest (MCF-7 cells [6]) | Cell cycle arrest (%) G0-G1 (MCF-7 cells [6]) | Cell cycle arrest (%) G2/M (MCF-7 cells [6]) | Cell cycle arrest (%) S (MCF-7 cells [6]) | IC50 [7]
1 | O=C1C(=Nn2cc(-c3ccccc3)n(-c3ccccc3)c2=S)c2cccc3cccc1c23 [5b, 2-((3,4-Diphenyl-2-thioxo-2,3-dihydro-1H-imidazol-1-yl)imino)acenaphthylen-1(2H)-one] | significant enhancement | 100 µM | 7.78 nM | 25.9 nM | 7.4 µM | 15.3 ± 0.50% | 22.7 ± 0.43% and 22.69% | 8.7 ± 0.44% | 46.6 ± 0.57% | 89.8 µM | 5.11 µM | 1.5 folds | 17.58 | 240 to 242 °C | 17.1 µM | S phase | 52.7 ± 0.30% | 13.4 ± 0.41% | 33.8 ± 0.70% | –
2 | O=C1C(=Nn2cc(-c3ccc(Cl)cc3)n(-c3ccccc3)c2=S)c2cccc3cccc1c23 [5h, 2-((4-(4-chlorophenyl)-3-phenyl-2-thioxo-2,3-dihydro-1H-imidazol-1-yl)imino)-acenaphthylen-1(2H)-one] | significant enhancement | 100 µM | 7.14 nM | 23.8 nM | 4.93 µM | 16.5 ± 0.64% | 28.4 ± 0.62% and 28.52% | 7.5 ± 0.68% | 52.5 ± 0.68% | 131 µM | 2.65 µM | 3 folds | 49.27 | 260 to 262 °C | 43.5 µM | S phase | 48.6 ± 0.73% | 9.7 ± 0.36% | 41.7 ± 0.39% | 340 nM
